Tests used:
Format in all cases: biochemical
[1] = target: PI3Kα (Homo sapiens, UniProt P42336); assay: PI3K-alpha fluorescence polarization assay; details: read-out: PI3Kα Median IC50
[2] = target: PI3Kγ (Homo sapiens, UniProt P48736); assay: PI3K-gamma fluorescence polarization assay; details: read-out: PI3Kγ Median IC50
[3] = target: mTOR (Homo sapiens, UniProt P42345); assay: mTOR enzyme assay (DELFIA format, His6-S6K substrate); details: read-out: mTOR Kinase Median IC50

Sequence of PI3Kα (P42336 whole entry, species assumed): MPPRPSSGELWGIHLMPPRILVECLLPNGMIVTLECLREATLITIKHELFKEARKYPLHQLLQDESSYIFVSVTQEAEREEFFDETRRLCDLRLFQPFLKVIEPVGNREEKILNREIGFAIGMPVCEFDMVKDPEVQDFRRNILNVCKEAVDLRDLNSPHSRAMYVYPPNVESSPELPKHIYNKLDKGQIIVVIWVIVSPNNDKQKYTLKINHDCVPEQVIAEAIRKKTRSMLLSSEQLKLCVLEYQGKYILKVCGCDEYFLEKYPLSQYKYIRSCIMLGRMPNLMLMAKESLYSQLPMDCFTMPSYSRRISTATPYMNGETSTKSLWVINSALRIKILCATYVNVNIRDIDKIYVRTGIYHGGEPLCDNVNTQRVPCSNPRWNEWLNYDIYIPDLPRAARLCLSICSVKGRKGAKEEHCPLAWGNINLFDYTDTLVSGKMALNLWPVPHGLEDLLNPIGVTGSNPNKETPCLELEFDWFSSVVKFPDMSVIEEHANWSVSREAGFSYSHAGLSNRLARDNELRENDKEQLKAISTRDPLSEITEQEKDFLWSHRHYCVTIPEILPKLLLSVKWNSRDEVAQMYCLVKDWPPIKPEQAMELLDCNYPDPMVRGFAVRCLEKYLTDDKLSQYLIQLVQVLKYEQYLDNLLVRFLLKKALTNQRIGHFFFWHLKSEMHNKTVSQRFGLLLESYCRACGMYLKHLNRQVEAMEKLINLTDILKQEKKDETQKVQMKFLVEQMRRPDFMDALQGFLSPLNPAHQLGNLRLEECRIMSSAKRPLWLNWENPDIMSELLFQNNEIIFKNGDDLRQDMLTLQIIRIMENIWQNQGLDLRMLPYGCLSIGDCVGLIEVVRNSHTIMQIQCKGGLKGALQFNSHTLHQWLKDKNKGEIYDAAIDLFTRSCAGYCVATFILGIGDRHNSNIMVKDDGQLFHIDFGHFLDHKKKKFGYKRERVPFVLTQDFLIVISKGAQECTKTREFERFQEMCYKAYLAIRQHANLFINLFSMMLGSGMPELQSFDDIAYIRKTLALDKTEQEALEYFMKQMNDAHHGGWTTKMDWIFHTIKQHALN
Sequence of PI3Kα (P27986 whole entry partner, species assumed): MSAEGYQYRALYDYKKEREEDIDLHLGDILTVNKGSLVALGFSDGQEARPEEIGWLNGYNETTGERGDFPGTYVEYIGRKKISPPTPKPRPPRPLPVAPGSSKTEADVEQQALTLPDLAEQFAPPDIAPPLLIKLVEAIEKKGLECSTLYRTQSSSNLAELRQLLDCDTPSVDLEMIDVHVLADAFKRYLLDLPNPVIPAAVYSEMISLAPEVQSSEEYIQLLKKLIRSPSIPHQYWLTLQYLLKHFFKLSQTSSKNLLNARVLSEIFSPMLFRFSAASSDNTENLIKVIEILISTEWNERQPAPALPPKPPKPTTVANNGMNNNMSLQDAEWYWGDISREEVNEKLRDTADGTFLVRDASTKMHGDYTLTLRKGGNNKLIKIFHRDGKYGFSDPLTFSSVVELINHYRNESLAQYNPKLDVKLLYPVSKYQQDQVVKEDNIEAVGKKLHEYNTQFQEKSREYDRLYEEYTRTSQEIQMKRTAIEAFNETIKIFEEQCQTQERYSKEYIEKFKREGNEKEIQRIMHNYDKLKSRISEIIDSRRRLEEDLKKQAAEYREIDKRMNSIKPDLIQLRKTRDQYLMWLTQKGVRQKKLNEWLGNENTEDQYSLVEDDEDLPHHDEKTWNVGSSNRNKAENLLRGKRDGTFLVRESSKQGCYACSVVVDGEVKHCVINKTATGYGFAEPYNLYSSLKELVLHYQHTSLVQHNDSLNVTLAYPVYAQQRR
Sequence of PI3Kγ (P48736 whole entry, species assumed): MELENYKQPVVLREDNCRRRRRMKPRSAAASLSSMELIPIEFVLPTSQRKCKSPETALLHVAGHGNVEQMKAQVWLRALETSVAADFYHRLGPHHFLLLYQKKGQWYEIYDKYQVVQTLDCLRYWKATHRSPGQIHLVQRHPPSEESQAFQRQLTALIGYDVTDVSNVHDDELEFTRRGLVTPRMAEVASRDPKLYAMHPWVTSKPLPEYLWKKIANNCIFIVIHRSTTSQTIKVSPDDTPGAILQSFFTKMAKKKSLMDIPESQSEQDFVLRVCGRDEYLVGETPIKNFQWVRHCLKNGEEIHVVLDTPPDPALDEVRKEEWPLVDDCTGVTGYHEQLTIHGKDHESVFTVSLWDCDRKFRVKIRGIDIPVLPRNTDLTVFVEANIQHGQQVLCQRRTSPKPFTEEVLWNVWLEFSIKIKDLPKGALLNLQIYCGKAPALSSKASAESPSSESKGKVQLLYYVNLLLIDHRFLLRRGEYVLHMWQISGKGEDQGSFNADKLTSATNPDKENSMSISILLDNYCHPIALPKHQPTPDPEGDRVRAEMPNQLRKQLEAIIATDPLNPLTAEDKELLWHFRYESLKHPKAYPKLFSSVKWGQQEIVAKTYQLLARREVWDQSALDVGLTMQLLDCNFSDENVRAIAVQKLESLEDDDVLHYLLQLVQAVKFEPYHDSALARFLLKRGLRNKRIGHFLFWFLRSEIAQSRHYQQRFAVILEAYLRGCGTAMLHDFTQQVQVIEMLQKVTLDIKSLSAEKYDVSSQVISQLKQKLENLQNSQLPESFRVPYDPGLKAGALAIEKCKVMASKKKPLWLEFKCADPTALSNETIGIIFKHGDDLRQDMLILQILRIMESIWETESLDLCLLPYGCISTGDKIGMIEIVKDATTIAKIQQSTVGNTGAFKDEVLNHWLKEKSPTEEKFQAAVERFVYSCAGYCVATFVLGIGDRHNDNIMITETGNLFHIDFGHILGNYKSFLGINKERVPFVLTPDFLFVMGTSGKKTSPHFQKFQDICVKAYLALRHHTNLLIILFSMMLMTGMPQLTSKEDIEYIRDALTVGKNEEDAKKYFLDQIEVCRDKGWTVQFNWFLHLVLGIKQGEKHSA

Structure (SMILES)	IC50 [1]	IC50 [2]	IC50 [3]
CCNC(=O)Nc1ccc2c(c1)C(=O)/C(=C/c1cn(C)c3nccc(N4CC5CCC(C4)O5)c13)O2 [Compound 61, 1-ethyl-3-[(2Z)-2-{[1-methyl-4-(8-oxa-3-azabicyclo[3.2.1]oct-3-yl)-1H-pyrrolo[2,3-b]pyridin-3-yl]methylene}-3-oxo-2,3-dihydro-1-benzofuran-5-yl]Urea]	0.311 µM	0.668 µM	0.057 µM
Cn1cc(/C=C2\Oc3cc(O)cc(O)c3C2=O)c2c(N3CCOCC3)ccnc21 [Compound 45, (2Z)-4,6-dihydroxy-2-[(1-methyl-4-morpholin-4-yl-1H-pyrrolo[2,3-b]pyridin-3-yl)methylene]-1-benzofuran-3(2H)-one]	0.012 µM	0.131 µM	0.0003 µM
CN1CCN(c2ccc(NC(=O)Nc3ccc4c(c3)C(=O)/C(=C/c3cn(C)c5nccc(N6CC7CCC(C6)O7)c35)O4)cn2)CC1 [Compound 231, 1-[(2Z)-2-{[1-methyl-4-(8-oxa-3-azabicyclo[3.2.1]oct-3-yl)-1H-pyrrolo[2,3-b]pyridin-3-yl]methylidene}-3-oxo-2,3-dihydro-1-benzofuran-5-yl]-3-[6-(4-methylpiperazin-1-yl)pyridin-3-yl]urea]	0.703 µM	> 10 µM	0.0315 µM
CONC(=O)c1ccc(-c2ccnc3c2c(/C=C2\Oc4ccc(NC(=O)Nc5cccnc5)cc4C2=O)cn3C)cc1 [Compound 248, N-methoxy-4-{1-methyl-3-[(Z)-{3-oxo-5-[(pyridin-3-ylcarbamoyl)amino]-1-benzofuran-2(3H)-ylidene}methyl]-1H-pyrrolo[2,3-b]pyridin-4-yl}benzamide]	0.976 µM	0.479 µM	1.65 µM
Cn1cc(/C=C2\Oc3cc(O)cc(O)c3C2=O)c2c(N3CC4CCC(C3)O4)ccnc21 [Compound 54, (2Z)-4,6-dihydroxy-2-{[1-methyl-4-(8-oxa-3-azabicyclo[3.2.1]oct-3-yl)-1H-pyrrolo[2,3-b]pyridin-3-yl]methylene}-1-benzofuran-3(2H)-one]	0.011 µM	0.07 µM	0.0001 µM
Cn1cc(/C=C2\Oc3cccc(O)c3C2=O)c2c(-c3ccc(S(=O)(=O)N4CCCC4)cc3)ccnc21 [Compound 190, (2Z)-4-hydroxy-2-({1-methyl-4-[4-(pyrrolidin-1-ylsulfonyl)phenyl]-1H-pyrrolo[2,3-b]pyridin-3-yl}methylidene)-1-benzofuran-3(2H)-one]	0.026 µM	0.08 µM	0.0035 µM
Cn1cc(/C=C2\Oc3cc(O)cc(O)c3C2=O)c2c(-c3ccc(S(N)(=O)=O)cc3)ccnc21 [Compound 17, 4-{3-[(Z)-(4,6-dihydroxy-3-oxo-1-benzofuran-2(3H)-ylidene)methyl]-1-methyl-1H-pyrrolo[2,3-b]pyridin-4-yl}benzenesulfonamide]	0.007 µM	0.057 µM	0.0003 µM
CN1CCN(c2ccnc3c2c(/C=C2\Oc4cccc(O)c4C2=O)cn3C)CC1 [Compound 47, (2Z)-4-hydroxy-2-{[1-methyl-4-(4-methylpiperazin-1-yl)-1H-pyrrolo[2,3-b]pyridin-3-yl]methylene}-1-benzofuran-3(2H)-one]	0.173 µM	0.645 µM	0.0028 µM
COc1ccccc1-c1ccnc2c1c(/C=C1\Oc3cc(O)cc(O)c3C1=O)cn2C [Compound 14, (2Z)-4,6-dihydroxy-2-{[4-(2-methoxyphenyl)-1-methyl-1H-pyrrolo[2,3-b]pyridin-3-yl]methylene}-1-benzofuran-3(2H)-one]	0.188 µM	0.22 µM	0.0014 µM
Cn1cc(/C=C2\Oc3cc(O)cc(O)c3C2=O)c2c(-c3ccc(F)c(C(=O)Nc4ccccc4)c3)ccnc21 [Compound 98, 5-{3-[(Z)-(4,6-dihydroxy-3-oxo-1-benzofuran-2(3H)-ylidene)methyl]-1-methyl-1H-pyrrolo[2,3-b]pyridin-4-yl}-2-fluoro-N-phenylbenzamide]	0.011 µM	0.1 µM	0.0002 µM
Cn1cc(C=C2Oc3ccc(NC(=O)Nc4cccnc4)cc3C2=O)c2c(N3CCC(C(=O)N4CC=CC4)CC3)ccnc21 [Compound 204, 1-[2-({4-[4-(2,5-dihydro-1H-pyrrol-1-ylcarbonyl)piperidin-1-yl]-1-methyl-1H-pyrrolo[2,3-b]pyridin-3-yl}methylidene)-3-oxo-2,3-dihydro-1-benzofuran-5-yl]-3-pyridin-3-ylurea]	5.62 µM	1.73 µM	0.01 µM
Cn1cc(/C=C2\Oc3cc(O)cc(O)c3C2=O)c2c(-c3ccc(OCCn4ccnc4)cc3)ccnc21 [Compound 16, (2Z)-4,6-dihydroxy-2-[(4-{4-[2-(1H-imidazol-1-yl)ethoxy]phenyl}-1-methyl-1H-pyrrolo[2,3-b]pyridin-3-yl)methylene]-1-benzofuran-3(2H)-one]	0.024 µM	0.247 µM	0.005 µM
Cn1cc(/C=C2\Oc3cc(O)cc(O)c3C2=O)c2c(-c3ccc(O)cc3)ccnc21 [Compound 19, (2Z)-4,6-dihydroxy-2-{[4-(4-hydroxyphenyl)-1-methyl-1H-pyrrolo[2,3-b]pyridin-3-yl]methylene}-1-benzofuran-3(2H)-one]	0.014 µM	0.035 µM	0.0005 µM
Cn1cc(C=C2Oc3ccc(NC(=O)Nc4cccnc4)cc3C2=O)c2c(N3CCC(C(=O)NC4CCOCC4)CC3)ccnc21 [Compound 214, 1-[1-methyl-3-({3-oxo-5-[(pyridin-3-ylcarbamoyl)amino]-1-benzofuran-2(3H)-ylidene}methyl)-1H-pyrrolo[2,3-b]pyridin-4-yl]-N-(tetrahydro-2H-pyran-4-yl)piperidine-4-carboxamide]	> 10 µM	> 10 µM	0.0102 µM
Cn1cc(/C=C2\Oc3ccc(NC(=O)NC4CNC4)cc3C2=O)c2c(N3CC4CCC(C3)O4)ccnc21 [Compound 285, 1-azetidin-3-yl-3-[(2Z)-2-{[1-methyl-4-(8-oxa-3-azabicyclo[3.2.1]oct-3-yl)-1H-pyrrolo[2,3-b]pyridin-3-yl]methylidene}-3-oxo-2,3-dihydro-1-benzofuran-5-yl]urea]	0.049 µM	0.532 µM	0.0114 µM
Cn1cc(/C=C2\Oc3cccc(O)c3C2=O)c2c(-c3ccc(C(=O)N4CCC(O)C4)cc3)ccnc21 (stereo not drawn) [Compound 245, (2Z)-4-hydroxy-2-[(4-{4-[(3-hydroxypyrrolidin-1-yl)carbonyl]phenyl}-1-methyl-1H-pyrrolo[2,3-b]pyridin-3-yl)methylene]-1-benzofuran-3(2H)-one]	0.029 µM	0.054 µM	0.0014 µM
CNc1ccc(-c2ccnc3c2c(/C=C2\Oc4cc(O)cc(O)c4C2=O)cn3C)cc1 [Compound 43, (2Z)-4,6-dihydroxy-2-({1-methyl-4-[4-(methylamino)phenyl]-1H-pyrrolo[2,3-b]pyridin-3-yl}methylene)-1-benzofuran-3(2H)-one]	0.019 µM	0.066 µM	0.0004 µM
CN(C)C(=O)C1CCN(c2ccnc3c2c(/C=C2\Oc4ccc(NC(=O)NC5CNC5)cc4C2=O)cn3C)CC1 [Compound 287, 1-{3-[(Z)-{5-[(azetidin-3-ylcarbamoyl)amino]-3-oxo-1-benzofuran-2(3H)-ylidene}methyl]-1-methyl-1H-pyrrolo[2,3-b]pyridin-4-yl}-N,N-dimethylpiperidine-4-carboxamide]	0.068 µM	0.314 µM	0.0084 µM
C[C@H]1COCCN1c1ccnc2c1c(/C=C1\Oc3ccc(NC(=O)Nc4cccnc4)cc3C1=O)cn2C [Compound 238, 1-[(2Z)-2-({1-methyl-4-[(3S)-3-methylmorpholin-4-yl]-1H-pyrrolo[2,3-b]pyridin-3-yl}methylidene)-3-oxo-2,3-dihydro-1-benzofuran-5-yl]-3-pyridin-3-ylurea]	0.649 µM	3.64 µM	0.13 µM
Cn1cc(C=C2Oc3ccc(NC(=O)Nc4cccnc4)cc3C2=O)c2c(N3CCC(C(=O)NCCN4CCCC4)CC3)ccnc21 [Compound 203, 1-[1-methyl-3-({3-oxo-5-[(pyridin-3-ylcarbamoyl)amino]-1-benzofuran-2(3H)-ylidene}methyl)-1H-pyrrolo[2,3-b]pyridin-4-yl]-N-(2-pyrrolidin-1-ylethyl)piperidine-4-carboxamide]	> 10 µM	> 10 µM	0.019 µM
COc1ccc(-c2ccnc3c2c(/C=C2\Oc4cccc(O)c4C2=O)cn3C)cc1S(=O)(=O)N1CCOCC1 [Compound 81, (2Z)-4-hydroxy-2-({4-[4-methoxy-3-(morpholin-4-ylsulfonyl)phenyl]-1-methyl-1H-pyrrolo[2,3-b]pyridin-3-yl}methylene)-1-benzofuran-3(2H)-one]	0.028 µM	0.079 µM	0.0016 µM
Cn1cc(/C=C2\Oc3cccc(O)c3C2=O)c2c(-c3ccc(CN4CCOCC4)cc3)ccnc21 [Compound 130, (2Z)-4-hydroxy-2-({1-methyl-4-[4-(morpholin-4-ylmethyl)phenyl]-1H-pyrrolo[2,3-b]pyridin-3-yl}methylene)-1-benzofuran-3(2H)-one]	0.154 µM	0.263 µM	0.0032 µM
COC1CCN(C(=O)c2ccc(-c3ccnc4c3c(/C=C3\Oc5ccc(NC(=O)Nc6cccnc6)cc5C3=O)cn4C)cc2)C1 (stereo not drawn) [Compound 259, 1-{(2Z)-2-[(4-{4-[(3-methoxypyrrolidin-1-yl)carbonyl]phenyl}-1-methyl-1H-pyrrolo[2,3-b]pyridin-3-yl)methylene]-3-oxo-2,3-dihydro-1-benzofuran-5-yl}-3-pyridin-3-ylurea]	2.06 µM	0.529 µM	0.0175 µM
COc1ccnc(CN(C)C(=O)C2CCN(c3ccnc4c3c(/C=C3\Oc5ccc(NC(=O)Nc6cccnc6)cc5C3=O)cn4C)CC2)c1 [Compound 224, N-[(4-methoxypyridin-2-yl)methyl]-N-methyl-1-{1-methyl-3-[(Z)-{3-oxo-5-[(pyridin-3-ylcarbamoyl)amino]-1-benzofuran-2(3H)-ylidene}methyl]-1H-pyrrolo[2,3-b]pyridin-4-yl}piperidine-4-carboxamide]	2.37 µM	1.42 µM	0.0235 µM
